The record followed here is EP1267623B1, “ACYCLIC MONOTERPENES AS ANTI-SPROUTING AGENTS FOR POTATO TUBERS” (COUNCIL OF SCIENTIFIC & INDUSTRIAL RESEARCH; An Indian …, priority 2000, dated 2001).

What all share (assay type): in vivo
Test [1] has as its system potato tubers. As to the kind of experiment: Sprout inhibition by dipping in combinations of monoterpenes and other compounds (Example 5). The note with it: dipping five hours in aqueous solution with Tween 20, 4-8 mM. As for the experimental part:
Combination of 4-8 mM of each geraniol, citral , citronella and citronellal were tried to determine the best combination. Along with this some other compounds were also tried. The terpenes were applied by dipping the tubers for five hours in aqueous solution of the monoterpenes containing Tween 20 as emulsifying agent. […] Other chemicals were not very effective. Results are given in table 5.Menthol, anisaldehyde, thymol, cinnamom bark oil and thymol has been used earlier (U.S. Patent No. 5,129,951 ) and were effective.

Test [2] concerns potato tubers. As to the kind of experiment: Sprout inhibition after dipping tubers in 8 mM emulsions of purified compounds (Example 3). To be noted: for % eyes sprouted: 8 mM emulsion with Tween 20, dipping 5 hours, then 10 days in jars at ambient temperature; for dormancy of tubers under repeated treatment: emulsion, dipped 5 hours, kept 10 days, then dipped again, after two months. The method, then: Therefore essential oils were purified by column chromatography and substantially pure compounds were used.
Emulsion of the compounds were prepared of 8 mM concentration of each compound in distilled water containing 2x10-6 % Tween 20 as emulsifier ( control tubers were treated with Tween 20 only). Tubers were treated by dipping each tuber in emulsion for 5 hours, where upon excess liquid was allowed to drain off. Six tubers per treatment were used, with two replicates, and all experiments were repeated once. Tubers were then kept in jars for 10 days at ambient temperature. Tubers were then evaluated as in example 1 & 2 for percentage of sprouted eyes, tuber texture and fungal growth.
Geranyl acetate inhibited sprouting by 42%. […] A&M plants 3 (3) no. 1452 pp 183].
Geraniol, citral, citranellol, citranellal and menthyl acetate were as effective as reported monoterpenes such as benzaldehyde, cinnamaldehyde, eugenol and thymol (U.S.patent no. 5,129,951).

Test [3] deals with potato tubers. As to the kind of experiment: Sprout inhibition by exposure to vapours of volatilized compounds for seven days (Example 6). To be noted: for % eyes sprouted: exposed to vapours (1 ml on filter paper, saturated atmosphere) for seven days, 14 days after removal; for sprouting 18 days after removal from treatment flask: exposed to vapours for seven days. The source says:
Tubers treated with emulsions of different aromatic compounds remained dormant. Therefore, it was tried to find out the response when tubers were exposed to vapours of volatilized compounds for sprout inhibition. Substantially pure compounds were used as in other examples. Six potatoes were placed in air tight jars containing 9 cm piece of filter paper saturated with one ml of the liquid compound. These amounts were sufficient to produce a saturated atmosphere in the flask. The filter paper was placed in the cap of the flask so that no direct physical contact with the tuber occurred. The tubers were removed after seven days and placed in flasks containing fresh air at ambient temperature. Control tubers were placed in sealed flask lacking any added compound. […] Such short term treatment would greatly lessen costs to the potato industry.

The test system of test [4] is potato tubers. Description: Sprout inhibition by exposure to fumes of citral from a vaporizer for 1, 2 or 4 days (Example 7). The note with it: 14 days after treatment. The method, then: The tubers were exposed to fumes of citral with the help of a vaporizer at ambient temperature in a close atmosphere for 24 hour, 48 hour and 96 hours. The tubers were then placed in flask containing fresh air and free of any additional volatilized compound. Control tubers were placed in sealed flasks lacking any added compounds. Fourteen days after treatment all tubers examined for percentage of eyes sprouted, tuber texture and fungal growth. 7

Test [5] relates to potato tubers. As to the kind of experiment: Sprout inhibition by dipping in geraniol and citral at different concentrations (Example 4). The note with it: for % eyes sprouted: dipping 5 hours, then 12 days in jars; for sprouting till 20 days after treatment: experiment continued till 20 days after treatment (6 and 8 mM). As for the experimental part: Tubers were treated with geraniol and citral the two promising chemicals at different concentrations. The terpenes were applied at 4mM, 6mM and 8m M for 5 hours by dipping the tubers and then the tubers were kept in jars for 12 days.

Setting [6] is: 8 mM emulsion, dipping 5 hours, 10 days.

As for `CC=Cc1ccc(OC)cc1` [Anethol], in test [1], the “% eyes sprouted After 3 days” value is listed as 0.0%, the “% eyes sprouted after 7 days” value is recorded as 0.0% and the “% eyes sprouted after 14 days” value came to 51%.
In the case of `COc1ccc(C=O)cc1` [Anisaldehyde], in test [1], the “% eyes sprouted After 3 days” value is on record as 78%, the “% eyes sprouted after 7 days” value came out at 96% and the “% eyes sprouted after 14 days” value came out at 96%.
Consider `CC12CCC(CC1=O)C2(C)C` (stereo not drawn) [Camphor], for which the “% eyes sprouted” value in test [2] was 89%. Moreover, the “effect on tuber sprouting (in words)” value in test [2] (setting [6]) was “no significant effect”.
Consider `CC(C)=CCCC(C)=CC=O` [Citral], for which the “% eyes sprouted” value in test [3] came to 0.0%; in test [2], 19%; in test [4] (exposure to fumes for 1 Day (24 hour)), 18.5%; in test [4] (exposure to fumes for 2 Days (48 hour)), 8.3%; in test [4] (exposure to fumes for 4 Days (96 hours)), 0.0%; in test [5] (4mM), 4.1%. For the same compound, the “% eyes sprouted” value in test [5] (6mM) and in test [5] (8 mM) was 0.0% throughout. For the same compound, in test [3], the “sprouting 18 days after removal from treatment flask” value (“sprouting 18 days after removal” for short) is given as “remained unsprouted”. For the same compound, in test [2] (setting [6]), the “effect on tuber sprouting (in words)” value is reported as “completely inhibited sprouting”. The “dormancy of tubers under repeated treatment” value in test [2] was “completely dormant”. The “sprouting till 20 days after treatment” value in test [5] is “sprouting was not observed”.
In the case of `CC(C)=CCC/C(C)=C/CO` [Geraniol], the “% eyes sprouted” value in test [3] is on record as 0.0%; in test [2], 16%; in test [5] (4mM) it was 7.5%; in test [5] (6mM), 0.0%; in test [5] (8 mM), 0.0%. Moreover, in test [3], the “sprouting 18 days after removal” value is recorded as “remained unsprouted”. Further, the “effect on tuber sprouting (in words)” value in test [2] (setting [6]) is “completely inhibited sprouting”. Besides, the “dormancy of tubers under repeated treatment” value in test [2] was “completely dormant”. In addition, in test [5], the “sprouting till 20 days after treatment” value is listed as “sprouting was not observed”.
As to `CC(=O)OC/C=C(\C)CCC=C(C)C` [Geranyl acetate], in test [2], the “% eyes sprouted” value was 58%. Also, in test [2] (setting [6]), the “inhibited sprouting by” value stood at 42%.
As for `C=C(C)[C@@H]1CC=C(C)C(=O)C1` [I-carvone], the “% eyes sprouted” value in test [2] came out at 100%. Also, in test [2] (setting [6]), the “effect on tuber sprouting (in words)” value was “no significant effect”.
In the same order, the values of `C=CC(C)(O)CCC=C(C)C` (stereo not drawn) [Linalool] are 100% and “no significant effect”.
In the case of `CC1CCC(C(C)C)C(O)C1` (stereo not drawn) [Menthol], in test [1], the “% eyes sprouted After 3 days” value stood at 29%, the “% eyes sprouted after 7 days” value was determined as 29% and the “% eyes sprouted after 14 days” value is 29%.
Turning to `CC(=O)OC1CC(C)CCC1C(C)C` (stereo not drawn) [Menthyl acetate], in test [3], the “% eyes sprouted” value was 0.0% and the “sprouting 18 days after removal” value is reported as “remained unsprouted”. In test [1], the “% eyes sprouted After 3 days” value amounted to 0.0%, the “% eyes sprouted after 7 days” value was 0.0% and the “% eyes sprouted after 14 days” value is listed as 0.0%.
As to `Cc1ccc(C(C)C)c(O)c1` [Thymol], in test [1], the “% eyes sprouted After 3 days” value is on record as 79%, the “% eyes sprouted after 7 days” value is reported as 98% and the “% eyes sprouted after 14 days” value was found to be 98%.
As for `CC(C)=CCCC(C)CC=O` (stereo not drawn) [citronellal], in test [3], the “% eyes sprouted” value amounted to 0.0% and the “sprouting 18 days after removal” value was “remained unsprouted”.
As for `C=C(C)[C@H]1CC=C(C)C(=O)C1` [d-carvone], the “% eyes sprouted” value in test [2] turned out to be 93%. Besides, in test [2] (setting [6]), the “effect on tuber sprouting (in words)” value is recorded as “no significant effect”.
With `CC(C)=CCC[C@@H](C)CCO` [d-citronellol], in test [3], the “% eyes sprouted” value was 0.0% and the “sprouting 18 days after removal” value is given as “remained unsprouted”. The “% eyes sprouted” value in test [2] worked out at 17%.
`CC(C)=CCC[C@H](C)CCO` [l-citronellol]: the “% eyes sprouted” value in test [2] worked out at 0.0%.
